The values that follow come from patent US11033569B2, “Compounds,Compositions, and methods for the treatment of disease” (Sperovie Biosciences, Inc., priority 2016, dated 2021).

Entries after “also recorded” stand apart in the source; their conditions may differ.

A short description of data set [1]: Oral maximum tolerated dose study in BALB/c mice. In kind it is in vivo. As for the experimental part:
In order to investigate the maximum tolerated dosage of orally administered compounds, 15 female BALB/c mice between 7-10 weeks old were split into three treatment groups. Each group was administered either Cmd 1 or vehicle orally, according to the schedule outlined in Table 5 below. Cmd 1 was provided at 10 mL/kg (0.200 mL/20 g mouse).

For data set [2], the system named is 4T1.luc2 orthotopic murine breast carcinoma. The data set can be described thus: 4T1.luc2 orthotopic murine breast carcinoma model. In kind it is in vivo, mice. As for the experimental part:
The efficacy of intraperitoneal administration of Cmd 1 was investigated in the 4T1.luc2 orthotopic murine breast carcinoma model. Thirty female BALB/c mice between 7-10 weeks old were randomized into four treatment groups based on Day 1 body weight, and the treatment was carried out according to the regimen outlined in Table 4 below. Cmd 1 was dissolved in saline and administered at 10 mL/kg (0.200 mL/20 g mouse), with a cell injection volume of 0.05 mL/mouse.
Each animal was monitored individually. The endpoint of the experiment was a tumor volume of […] or 45 days. Animals in Groups 1 and 2 were subjected to whole body bioluminescent imaging starting on Day 5 and once a week thereafter (Days 12, 19, 26, 33, and 41). At the endpoint, blood and tissue (lung, lymph nodes, spleen, and tumor) was analyzed for presence of metastases and biomarker (CD45, CD3, CD4, CD8, CD11b, CD25, Ly-6G, Ly-6C, FoxP3) levels.

Another data set concerns THP1 cells and PBMCs. In words: Gene expression of ISGs and PRRs in THP1 and PBMCs (real time PCR). In kind it is cell-based. Conditions: 5 uM, Lipofectamine LTX, 20 h. As for the experimental part: (§1) After incubation for 20 h, RNA was extracted and gene expression of different Interferon Stimulated Genes (ISGs) and various Pattern Recognition Receptors (PRRs) was evaluated by real time PCR. Fold Induction was calculated by ΔΔct method.
as §1
In general terms: In qPCR the cycle at which signal appears reflects the starting amount.

Data set [3] concerns the target T1, STING (Homo sapiens, UniProt Q86WV6).
T1 construct: host or cells: SZ14 HEK293 cells stably expressing ISG54 ISRE-luc reporter
In words: Gel shift assay. In kind it is binding. The note with it: gel shift with fluorescent close structural analog of Cmd 1. On the technique in general: Mobility shift assays separate free from complexed probe on a gel.

Data set [4] relates to panel of normal cell lines. In words: Cytotoxicity in a panel of normal cell lines. In kind it is cell-based.
For data set [5], the target named is T2, STING (Homo sapiens, UniProt Q86WV6, G230A/H232R/R293Q/R71H).
T2 construct: endogenous in cells; host or cells: THP1 cells
In words: Role of STING palmitoylation in THP1 cells. In kind it is cell-based.

Setting [6] is: 60 mg/kg po bid x 10 (first day 1 dose), n=5.
The mark [7] stands for this setting: oral, once daily or twice daily up to 60 mgkg/day.

T1 sequence (Q86WV6 whole entry): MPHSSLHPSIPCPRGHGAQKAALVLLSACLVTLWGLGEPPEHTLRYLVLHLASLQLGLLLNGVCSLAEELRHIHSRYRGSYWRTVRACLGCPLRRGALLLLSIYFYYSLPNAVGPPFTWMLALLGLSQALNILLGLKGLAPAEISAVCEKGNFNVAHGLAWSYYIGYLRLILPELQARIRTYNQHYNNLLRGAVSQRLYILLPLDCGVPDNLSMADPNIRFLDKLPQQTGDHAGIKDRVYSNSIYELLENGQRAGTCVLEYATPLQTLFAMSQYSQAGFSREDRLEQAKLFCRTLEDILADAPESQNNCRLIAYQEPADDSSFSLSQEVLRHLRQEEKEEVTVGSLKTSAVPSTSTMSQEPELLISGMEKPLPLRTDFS
T2 sequence (Q86WV6 whole entry R71H/G230A/H232R/R293Q): as the sequence (Q86WV6 whole entry) above, with R71H, G230A, H232R, R293Q counted along it

In data set [1] (setting [6]), `CCCCCCCCCCOc1ccc(C(=O)Oc2ccc(CSP3(=O)OC[C@H]4O[C@@H](n5cnc6c(N)ncnc65)[C@H](F)[C@@H]4OP(=O)(O)OC[C@H]4O[C@@H](n5ccc(=O)[nH]c5=O)[C@H](F)[C@@H]4O3)cc2)cc1.N` (stereo partly shown) [Cmd 1] yielded an NTR of 0, an NTRm of 0 and a TR of 0. The “BW Nadir” value in data set [1] (60 mg/kg po bid x 10 (first day 1 dose), nadir day (11)) is −3.6%. In data set [1] (60 mg/kg po qd x 10, n=5), this compound gave an NTR of 0, an NTRm of 0 and a TR of 0. In data set [1] (setting [7]), the adverse clinical signs entry is “no adverse clinical signs” and the tolerability result was “well tolerated”. In addition, the “tumor growth / tumor volume” value in data set [2] (10 mg/kg ip days 5, 7, 9, 11, 14, 18, compared with control) is listed as “significant decline in tumor volume; also recorded: significant decrease in tumor growth”. In data set [2] (4T1 breast cancer model, compared with vehicle (FIG. 75)), the tumor growth entry was “considerable tumor growth inhibition”. Further, the “tumor growth (luminescence images)” value in data set [2] (intraperitoneal administration, compared with vehicle (FIG. 82)) is reported as “considerable tumor growth inhibition”. In addition, the “induction of ISG and PRR-associated genes, THP1 compared to PBMCs” value in the data set on THP1 cells and PBMCs is “selective and enhanced induction of ISG and PRR-associated genes”. The “binding to STING” value at STING [3] is given as “binds to STING”. Also, the cytotoxicity result in data set [4] is “non-cytotoxic”. In addition, the “involvement of STING palmitoylation in activation of NF-κB and IRF-type I interferon response” value at STING [5] was “palmitoylation of STING is involved”.
